Data taken from US20250282742A1, “BENZOFURAN DERIVATIVES FOR TARGETING AUTOPHAGY” (Automera PTE. LTD, priority 2024, published 2025).

Tested on: p62 puncta in HeLa cells
Test: p62 puncta assay (immunocytochemistry and imaging, EVOS M7000 or Operetta CLS)
Assay type: cell-based
Conditions: Homo sapiens, fold change in p62 puncta levels relative to DMSO control, 24 hr
Protocol: HeLa cells were seeded in coated 96-well plates (10,000 cells) and allowed to adhere overnight. After 24 hours of treatment with either vehicle (DMSO) or test compounds, the media was discarded, and cells were rinsed with ice-cold 1×PBS before fixation by 4% formaldehyde or paraformaldehyde for 20 min. Cells were then washed with 1×PBS and permeabilized with 0.1% Triton X-100 in PBS for 20 min and blocked with Blocking Buffer in PBS for 1 hour. The cells were incubated thereafter for 1 hour with anti-p62 primary antibody in Blocking Buffer, followed by incubation with secondary antibody for 1 hour. DAPI dye was used to visualize nuclei of fixed cells. The blocking buffer used were 5% Fetal Bovine Serum (FBS, ThermoFIsher Scientific, 10270106) and Li-cor Intercept (PBS) Blocking Buffer (Li-cor, 927-70001). The primary antibody used was mouse anti-p62 primary antibody (Novus Biologicals, H00008878-MO1). The secondary antibodies used were goat anti-mouse Alexa Fluor Plus 488 secondary antibody (Invitrogen, GOXMS) and goat anti-mouse Alexa Fluor 488 secondary antibody (Invitrogen, A-11029). The DAPI dyes used were DAPI dye (Invitrogen, 62248) and DAPI dye (Invitrogen, D1306).
For the EVOS M7000 System, cells were imaged on the EVOS M7000 microscope using a 20× air objective (Nikon, N.A 0.45). DAPI and p62 channels were illuminated with LED light cubes using integrated hard-coated filter sets for DAPI (357/447 nm) and GFP (470/525 nm) respectively. Images were analysed for p62 puncta count on the Celeste 6.0 software.
For the Operetta CLS System, cells were imaged on the Operetta CLS using a 63× water objective on the DAPI and Alexa 488 channels. Images were analysed for p62 puncta count on the Harmony 5.1 software.
HeLa cells were treated with compounds for 24 hours to evaluate the effect of these compounds on p62 puncta activity. The resulting changes in levels of p62 puncta were assessed by imaging, either on the EVOS M7000 or Operetta CLS systems as described in experimental procedures. The fold change of p62 puncta levels induced by compound treatment relative to vehicle control (DMSO) was determined and summarized in Table 10.

Structure (SMILES)	fold induction at 5 µM
OCCNCc1ccc2cc(CN3CCCCC3)oc2c1 [compound 25]	< 2
OCCNCc1ccc2cc(-c3ccccc3Cl)oc2c1 [compound 72]	> 2
OCCNCc1ccc2cc(-c3cccc(Cl)c3)oc2c1 [compound 73]	> 2
OCCNCc1ccc2cc(-c3ccc(Cl)cc3)oc2c1 [compound 74]	> 2
COc1ccc(-c2cc3ccc(CNCCO)cc3o2)cc1 [compound 76]	> 2
CC(C)NCCOCc1ccc2cc(-c3ccccc3)oc2c1 [compound 77]	> 2
CC(C)NCC(O)COc1ccc2cc(-c3ccccc3)oc2c1 (stereo not shown) [compound 78]	> 2
CC(C)NCCOCc1ccc2cc(CCc3ccc(F)cc3)oc2c1 [compound 79]	> 2
CC(C)NCC(O)COc1ccc2cc(CCc3ccc(F)cc3)oc2c1 (stereo not shown) [compound 80]	> 2
CC(C)(C)OC(=O)NCCOCCOCCOCCNCc1ccc2cc(Cc3ccccc3)oc2c1 [compound 82, tert-butyl (1-(2-benzylbenzofuran-6-yl)-5,8,11-trioxa-2-azatridecan-13-yl)carbamate]	< 2
C#CCCOCCOCCNCc1ccc2cc(CCc3ccc(F)cc3)oc2c1 [compound 83, 2-(2-(but-3-yn-1-yloxy)ethoxy)-N-((2-(4-fluorophenethyl)benzofuran-6-yl)methyl)ethan-1-amine]	> 2
C#CCCOCCOCCOCCNCc1ccc2cc(CCc3ccc(F)cc3)oc2c1 [compound 84]	> 2
CNCCOCCOCCNCc1ccc2cc(CCc3ccc(F)cc3)oc2c1 [compound 86]	> 2
CNCCOCCOCCOCCNCc1ccc2cc(CCc3ccc(F)cc3)oc2c1 [compound 87]	> 2
CC(C)(C)OC(=O)N1CCC(OCCOCCNCc2ccc3cc(CCc4ccc(F)cc4)oc3c2)CC1 [compound 90]	> 2
C#CCCOCCOCCOCCNCc1ccc2cc(-c3ccccc3)oc2c1 [compound 94]	> 2
COC(=O)CCOCCOCCNCc1ccc2cc(-c3ccccc3)oc2c1 [compound 95, methyl 3-(2-(2-(((2-phenylbenzofuran-6-yl)methyl)amino)ethoxy)ethoxy)propanoate]	> 2
C#CCCOCCOCCOCCNCc1ccc2cc(Cc3ccc(Cl)cc3)oc2c1 [compound 96]	> 2
C#CCCOCCOCCNCC(O)COc1ccc2cc(Cc3ccccc3)oc2c1 (stereo not shown) [compound 98, 1-((2-benzylbenzofuran-6-yl)oxy)-3-((2-(2-(but-3-yn-1-yloxy)ethoxy)ethyl)amino)propan-2-ol]	> 2
COC(=O)CCOCCNCC(O)COc1ccc2cc(Cc3ccccc3)oc2c1 (stereo not shown) [compound 99]	< 2
COCCNCc1ccc2cc(-c3ccccc3)oc2c1 [compound 105]	> 2
OCCNCc1ccc2nc(-c3ccccc3)oc2c1 [compound 106]	> 2
COC1CC(NCc2ccc3cc(-c4ccccc4)oc3c2)C1 (stereo not shown) [compound 107]	< 2

Structure (SMILES)	fold induction at 5 µM
COC1CN(Cc2ccc3cc(-c4ccccc4)oc3c2)C1 [compound 108]	> 2
CO[C@@H]1CCCN(Cc2ccc3cc(-c4ccccc4)oc3c2)C1 [compound 109]	< 2
CO[C@H]1CCCN(Cc2ccc3cc(-c4ccccc4)oc3c2)C1 [compound 110]	< 2
COC1CN(Cc2ccc3cc(-c4cccnc4)oc3c2)C1 [compound 112]	< 2
OCCNCc1ccc2nc(-c3ccccc3)sc2c1 [compound 113]	> 2
CNCCCOCCOCCNCc1ccc2cc(-c3ccccc3)oc2c1 [compound 120]	> 2
CNC(=O)CCOCCOCCNCc1ccc2cc(-c3ccccc3)oc2c1 [compound 121]	< 2
CC(C)(C)OC(=O)NCCOCCNCc1ccc2cc(CCc3ccc(F)cc3)oc2c1 [compound 122]	> 2
CC(C)(C)OC(=O)N1CCC(COCCNCc2ccc3cc(CCc4ccc(F)cc4)oc3c2)CC1 [compound 123]	> 2
CC(C)(C)OC(=O)NCCOCCOCCNCc1ccc2cc(CCc3ccc(F)cc3)oc2c1 [compound 124]	> 2
CC(C)(C)OC(=O)NCCOCCOCCOCCNCc1ccc2cc(CCc3ccc(F)cc3)oc2c1 [compound 125]	> 2
C#CCOCCOCCOCCNCc1ccc2cc(CCc3ccc(F)cc3)oc2c1 [compound 126]	> 2
CC(C)(C)OC(=O)CCOCCOCCNCc1ccc2cc(CCc3ccc(F)cc3)oc2c1 [compound 127]	> 2
CC(C)(C)OC(=O)COCCCOCCNCc1ccc2cc(CCc3ccc(F)cc3)oc2c1 [compound 128]	> 2
C#CCOCCOCCNCc1ccc2cc(CCc3ccc(F)cc3)oc2c1 [compound 129]	> 2
CC(C)(C)OC(=O)COCCNCc1ccc2cc(CCc3ccc(F)cc3)oc2c1 [compound 131]	> 2
CC(C)(C)OC(=O)CCOCCNCc1ccc2cc(CCc3ccc(F)cc3)oc2c1 [compound 132]	> 2
C#CCCOCCNCc1ccc2cc(CCc3ccc(F)cc3)oc2c1 [compound 133]	> 2
CC(C)(C)OC(=O)c1ccc(COCCNCc2ccc3cc(CCc4ccc(F)cc4)oc3c2)cc1 [compound 134]	> 2
COC(=O)c1cccc(COCCNCc2ccc3cc(CCc4ccc(F)cc4)oc3c2)c1 [compound 135]	< 2
Fc1ccc(CCc2cc3ccc(CNCCOCCCCl)cc3o2)cc1 [compound 136]	> 2
CC(C)(C)OC(=O)CCCCOCCNCc1ccc2cc(CCc3ccc(F)cc3)oc2c1 [compound 137]	< 2
C#CCCCCCOCCNCc1ccc2cc(CCc3ccc(F)cc3)oc2c1 [compound 138]	> 2

Structure (SMILES)	fold induction at 5 µM
CC(C)(C)OC(=O)CCCCCCCCOCCNCc1ccc2cc(CCc3ccc(F)cc3)oc2c1 [compound 139]	< 2
CC(C)(C)OC(=O)CCCCCOCCNCc1ccc2cc(CCc3ccc(F)cc3)oc2c1 [compound 140]	< 2
C#CCCCCCCOCCNCc1ccc2cc(CCc3ccc(F)cc3)oc2c1 [compound 141]	> 2
CCOC(=O)C1CCN(C(=O)COCCNCc2ccc3cc(CCc4ccc(F)cc4)oc3c2)CC1 [compound 142]	> 2
CC(C)(C)OC(=O)CCCOCCNCc1ccc2cc(CCc3ccc(F)cc3)oc2c1 [compound 145]	< 2
COC(=O)C1(COCCNCc2ccc3cc(CCc4ccc(F)cc4)oc3c2)COC1 [compound 146]	< 2
CC(C)(C)OC(=O)N1CCN(CCOCCNCc2ccc3cc(CCc4ccc(F)cc4)oc3c2)CC1 [compound 147]	> 2
CC(C)(C)OC(=O)NCCCCCOCCNCc1ccc2cc(CCc3ccc(F)cc3)oc2c1 [compound 148]	< 2
CC(C)(C)OC(=O)NCCCCCCCCOCCNCc1ccc2cc(CCc3ccc(F)cc3)oc2c1 [compound 149]	> 2
CC(C)(C)OC(=O)Nc1ccc(COCCNCc2ccc3cc(CCc4ccc(F)cc4)oc3c2)cc1 [compound 151]	> 2
CC(C)(C)OC(=O)N1CCC(CCOCCNCc2ccc3cc(CCc4ccc(F)cc4)oc3c2)CC1 [compound 152]	> 2
CC(C)(C)OC(=O)Nc1cccc(COCCNCc2ccc3cc(CCc4ccc(F)cc4)oc3c2)c1 [compound 153]	> 2
CC(C)(C)OC(=O)NCCCOCCNCc1ccc2cc(CCc3ccc(F)cc3)oc2c1 [compound 154]	> 2
CC(C)(C)OC(=O)N1CC(COCCNCc2ccc3cc(CCc4ccc(F)cc4)oc3c2)C1 [compound 155]	> 2
CC(C)(C)OC(=O)NC1(COCCNCc2ccc3cc(CCc4ccc(F)cc4)oc3c2)CC1 [compound 156]	> 2
CC(C)(C)OC(=O)N1CCC(OCCNCc2ccc3cc(CCc4ccc(F)cc4)oc3c2)C1 (stereo not shown) [compound 157]	> 2
CC(C)(C)OC(=O)N1CC(OCCNCc2ccc3cc(CCc4ccc(F)cc4)oc3c2)C1 [compound 158]	> 2
COC(=O)c1ccc(OCCOCCNCc2ccc3cc(CCc4ccc(F)cc4)oc3c2)cc1 [compound 159]	> 2
COC(=O)CCOCCOCCOCCNCc1ccc2cc(CCc3ccc(F)cc3)oc2c1 [compound 160]	< 2
C#CCCCCCCCCOCCNCc1ccc2cc(CCc3ccc(F)cc3)oc2c1 [compound 161]	> 2
COC(=O)c1ccc(N2CCC(COCCNCc3ccc4cc(CCc5ccc(F)cc5)oc4c3)CC2)cc1 [compound 162]	> 2
